Measurements as given in patent US12534496B2, “Polymorphic forms of Cyclo (-His-Pro) and methods of use to treat kidney disease” (NovMetaPharma Co., Ltd., priority 2018, dated 2026).
“And” between values parts separate entries of the source, which are not always exact repeats. Equal entries are not always repeated. “Also recorded” adds a separate entry of the source.

Experiments:
Format in all cases: physicochemical
[1] = Solution state chemical stability in water/acetone and EtOH/water/MtBE (HPLC purity); settings: 10 mg/ml; for Observation: up to 20 h
Method: Solution state chemical stability of the compound was studied in different solvent systems at different temperatures (Table 4). The solution was held at 50° C. and 80° C., and purity of the solution was tracked. The compound was generally stable for at least 20 hours.

[2] = Dynamic vapor sorption (DVS) at 25 °C with post-DVS XRPD
Method: DVS was carried out by placing an approximately 10-20 mg sample into a mesh vapour sorption balance pan and loaded into a DVS Intrinsic Dynamic Vapour Sorption Balance by Surface Measurement Systems. The sample was subjected to a ramping profile from 40 to 90% relative humidity (RH) at 10% increments, maintaining the sample at each step until a stable weight had been achieved (dm/dt 0.004%, minimum step length 30 minutes, maximum step length 500 minutes) at 25° C. After completion of the sorption cycle, the sample was dried using the same procedure to 0% RH and then a second sorption cycle back to 40% RH. Two cycles were performed. The weight change during the sorption/desorption cycles were plotted, allowing for the hygroscopic nature of the sample to be determined. XRPD analysis was then carried out on any solid retained.
Approximately, 10-20 mg of sample was placed into a mesh vapor sorption balance pan and loaded into a DVS Intrinsic dynamic vapor sorption balance by Surface Measurement Systems. The sample was subjected to a ramping profile from 40-90% relative humidity (RH) at 10% increments, maintaining the sample at each step until a stable weight had been achieved (dm/dt 0.004%, minimum step length 30 minutes, maximum step length 500 minutes) at 25° C. After completion of the sorption cycle, the sample was dried using the same procedure to 0% RH and then a second sorption cycle back to 40% RH. Two cycles were performed. The weight change during the sorption/desorption cycles were plotted, allowing for the hygroscopic nature of the sample to be determined. XRPD analysis was then carried out on any solid retained.

[3] = GMP stability study of CHP anhydrate and CHP hydrate under accelerated conditions (total impurities); settings: for Growth of total Impurities: 40 °C/75% RH
Method: CHP anhydrate (Pattern 1) and hydrate (Pattern 2) compounds were manufactured under GMP conditions. A stability study for the CHP anhydrate compound was conducted under ccelerated conditions (40±5° C./75±5% RH) for six months and room temperature conditions (25±5° C./60±5% RH) for 12 months. A further stability study for the CHP hydrate compound was conducted under accelerated conditions (40±5° C./75±5% RH) for 6 months (Table 18).

[4] = Approximate solubility of CHP Pattern 1 by solvent addition technique
Method: The approximate solubility of CHP in 37 selected solvent systems (Table 13) was estimated by solvent addition technique. The following procedure was used: • Approximately 20 mg of CHP Pattern 1 was weighed out into each of 37vials. • Each solvent/solvent mixture was added to the appropriate vial in 5 volume aliquots (100 μL) until dissolution was observed or a maximum of 2 mL solvent was added. • In between additions, the sample was heated to 40° C. to check for dissolution at elevated temperature. • If 2 mL of solvent was added without dissolution of the material, solubility was calculated to be below 10 mg/mL. • After solvent addition, all 37 vials were placed in a fridge to crash cool between 2-8° C. for ca. 18 hours. • Any solids present were isolated by centrifuge filtration and analyzed by XRPD (where material amount allowed). • Where no solids were produced, vials were uncapped and left to evaporate at ambient temperature. • Any solids present were analyzed by XRPD (where material amount allowed).

[5] = pH solubility assessment in buffers at 37 °C; settings: 100 mg solid
Method: CHP patterns 1 and 2 were prepared for pH solubility assessment as follows: • 100 mg of CHP pattern 1 and pattern 2 were each weighed out into 4, 5 mL screw top glass vials; • 100 μL of a selected buffer, pre-heated to 37° C., was added to each vial; • Samples were heated to 37° C. in an incubator shaker for ca. 10 minutes after each volume of buffer and checked for sample dissolution.

[6] = pKa analysis via potentiometric acid/base titration
Method: pKa analysis was carried out on Pattern 1 via a potentiometric technique which is acid/base titration to determine the pKa point.

Purity (a %) ([1]; (EtOH:H2O = 9:1):MTBE = 1:3 (v/v), 50 °C, 0 h): 99.82% | Purity (a %) ([1]; (EtOH:H2O = 9:1):MTBE = 1:3 (v/v), 50 °C, 2 h): 99.77% | Purity (a %) ([1]; (EtOH:H2O = 9:1):MTBE = 1:3 (v/v), 50 °C, 20 h): 99.82% | Observation ([1]; (EtOH:H2O = 9:1):MTBE = 1:3 (v/v), 50 °C): No change | Purity (a %) ([1]; EtOH:H2O = 9:1 (v/v), 50 °C, 0 h): 99.76% | Purity (a %) ([1]; EtOH:H2O = 9:1 (v/v), 50 °C, 2 h): 99.86% | Purity (a %) ([1]; EtOH:H2O = 9:1 (v/v), 50 °C, 20 h): 99.69% | Observation ([1]; EtOH:H2O = 9:1 (v/v), 50 °C): No change | Purity (a %) ([1]; H2O, 80 °C, 0 h): 99.82% | Purity (a %) ([1]; H2O, 80 °C, 2 h): 99.77% | Purity (a %) ([1]; H2O, 80 °C, 20 h): 99.82% | Observation ([1]; H2O, 80 °C): No change | Purity (a %) ([1]; H2O:Acetone = 0.5:9.5 (v/v), 50 °C, 0 h): 99.77% | Purity (a %) ([1]; H2O:Acetone = 0.5:9.5 (v/v), 50 °C, 2 h): 99.72% | Purity (a %) ([1]; H2O:Acetone = 0.5:9.5 (v/v), 50 °C, 20 h): 99.73% | Observation ([1]; H2O:Acetone = 0.5:9.5 (v/v), 50 °C): No change | DVS maximum uptake after conversion to Pattern 2 ([2]; between 0 and 90% RH, 25 °C): 0.8 wt % | DVS weight gain (change in mass) ([2]; from 60% RH to 90% RH, 25 °C): 6.3% | Growth of total Impurities ([3]; 0M): 0% | Growth of total Impurities ([3]; 1M): 0% | Growth of total Impurities ([3]; 3M, listed as CHP anhydrate (pattern 1)): 0.27% | Growth of total Impurities ([3]; 6M, listed as CHP anhydrate (pattern 1)): 0.53% | Water content reached by moisture absorption ([3]; during the stability study): 7% | Approximate Solubility ([4]; THF): ≤ 10000 µg/mL | Approximate Solubility ([4]; acetone): ≤ 10000 µg/mL | Approximate Solubility ([4]; acetonitrile): ≤ 10000 µg/mL | Approximate Solubility ([4]; water): ≥ 200000 µg/mL | Approximate Solubility ([4]; water:acetone [90:10]): ≥ 200000 µg/mL | μL for Dissolution at 37° C. ([5]; buffer pH 1): 300 µL | μL for Dissolution at 37° C. ([5]; buffer pH 4): 300 µL | μL for Dissolution at 37° C. ([5]; buffer pH 6.8): 300 µL | μL for Dissolution at 37° C. ([5]; buffer pH 7.2): 300 µL | pKa [6]: 6.4 and 6.38
SMILES: O=C1N[C@@H](Cc2cnc[nH]2)C(=O)N2CCC[C@@H]12 [Pattern 1, Cyclo (-His-Pro)]
Post-DVS XRPD form ([2]; after DVS cycles at 25 °C): a new form, assigned as pattern 2; also recorded: re-crystallized to pattern 2
